Test results published in patent publication US20130052143A1, “LIQUID PREPARATION FOR ORAL ADMINISTRATION TO BE USED IN CT COLONOGRAPHY, AND COMPOSITION FOR DIGESTIVE TRACT IMAGING” (Ajinomoto Co., Inc., priority 2010, published 2013).

Details: in vivo
Description: In the insufflation to inflate the intestinal tract, a carbon dioxide gas (CO2) was supplied by using a hand operated double balloon pump through the transanal route. […] No anticonvulsive agent was used.
The procedure of the imaging was such that: firstly, the posture of the examinee was set to the left lateral decubitus position; a tube for insufflation was inserted; and a gas was supplied to confirm that smooth insufflation was possible. Next, the posture of the examinee was set to the abdominal position; the insufflation was conducted until the examinee had claimed a strong feeling of fullness or the pressure inside the intestinal tract had reached 25 mmHg; scanography was performed to confirm that the large intestine had been sufficiently inflated; and thereafter the CT image was taken. After taking the image of the abdominal position, the posture of the examinee was set to the dorsal position, and scanography was again performed to take the CT image in the dorsal position. At this time, if the inflation of the large intestine had been insufficient, additional insufflation was conducted. After the completion of the CT image taking, colon endoscopy was conducted to see the circumstances of the residual feces and residual liquid in the large intestine by eye. The CT image was taken under the charge of a clinical X-ray technician.

- examinees who felt abdominal pains: 50.0%
Structure (SMILES): O=C=O [CO2, carbon dioxide gas]
